From article PMC5107945, “Abscinazole-E3M, a practical inhibitor of abscisic acid 8′-hydroxylase for improving drought tolerance” (Scientific Reports, 2016)

Key:
[1] = test system: Arabidopsis seed germination; experiment: Arabidopsis seed germination assay; format: in vivo, Arabidopsis (Columbia accession)
Method: Figure 3 Effects of (−)-Abz-T compounds on Arabidopsis seed germination compared with that of (−)-Abz-E2B. Seed germination rates in the presence of 0.1 μM ABA and the indicated concentrations of azole inhibitors at a time when the germination rate of plants treated only with ABA was 80% (n = 3; error bars represent s.d.). Compound 6 is also referred to as Abz-E3M.
For the Arabidopsis seed germination assay, 25 to 40 seeds (Columbia accession) were sterilised successively by soaking in 70% EtOH for 30 min and reagent-grade EtOH for 1 min. They were then soaked in distilled water and incubated in the darkness at 5 °C for 3 d. The stratified seeds were then soaked in 100 μL of a test medium liquid agar in 96-well plates and allowed to germinate under continuous illumination at 22 or 30 °C. In these assays, we used the classic definition of radical emergence for seed germination. All of the assays were conducted at least three times.

maize stomatal movement = experiment: Thermal imaging and transpirational water loss analysis in maize; format: in vivo; details: 10 mL of 100 μM sprayed per plant, overnight
Method: The effects of (-)-Abz-[…] were also determined relative to stomatal apertures. Arabidopsis grown in soil pots underwent moderate drought stress under the optimal growth conditions of 22 °C and 60% relative humidity. Under these growth conditions, the leaf surface temperature of the mock-treated controls was 19.5 °C, which was lower than the surrounding atmospheric temperature because of transpirational water loss (Fig. 6a,b)[30]. […] Finally, we examined the effects of (-)-Abz-[…] on drought tolerance under more practical conditions. Three-week-old Arabidopsis were sprayed with an aqueous solution containing 50 μM (-)-Abz-[…]. Water was not supplied for 12 days, and then the plants were rehydrated. […] We also tested the effects of (-)-Abz-[…] on a monocot crop, maize, to evaluate whether (-)-Abz-[…] affected stomatal movement and enhanced ABA response across plant species. […] Thus, the effects of (-)-Abz-[…] were not restricted to the model plant Arabidopsis. Figure 7 Effects of (-)-Abz-[…] on maize. (a) Thermal images of the leaf surface temperatures of (-)-Abz-[…]-treated maize plants. (b) Leaf surface temperatures of (-)-Abz-[…]-treated maize plants. The stomatal conductance (c) and transpiration rate (d) in (-)-Abz-[…]-treated maize at different light intensities. […] Values are means with s.d. (n = 4 for leaf surface temperature, n = 3 for stomatal conductance and transpiration rate). (e) Effects of (-)-Abz-[…] on endogenous ABA levels. (f) Expression levels of ZmLEA, Zm.12309.1.S and ZmCOR410 after the (-)-Abz-[…] treatment. […] After an overnight incubation, the conductance and transpiration rate were analysed using an LI-6400 (Li-Cor Biosciences), and the leaf surface temperatures were measured using a thermal imaging camera ([…], Nippon Avionics Co., Ltd.) in the glass house. Temperatures on the leaf surfaces were analysed by NS9200 software (Nippon Avionics Co., Ltd.).

[2] = test system: MAPKKK18 promoter GUS reporter; experiment: ABA-responsive MAPKKK18::GUS reporter analysis; format: in vivo, Arabidopsis; details: co-treatment with ABA; 5 or 25 μM, 6 h; Fig. S6
Method: MAPKKK18::GUS reporter-containing transgenic Arabidopsis[32] were grown for 6 d on agar plates containing 1/2 MS and 0.5% sucrose. Seedlings were incubated in 1/2 MS solutions containing 0.5% sucrose with chemicals for 6 h. GUS activities were detected using a reaction buffer containing 50 mM sodium phosphate buffer, 2.5 mM potassium ferrocyanide, 2.5 mM potassium ferricyanide and 1 mM X-gluc. The GUS enzyme reaction was performed at 30 °C for ~12 h. The reaction was stopped by adding 70% EtOH. Tissue-specific GUS staining was observed by microscope after bleaching the chlorophyll pigment.
Supplementary Figure 6. (−)-Abz-E3M enhanced the ABA-inducible MAPKKK18 expression level. Six-day-old seedlings of MAPKKK18::GUS reporter-containing transgenic plants were incubated in solutions containing either 5 or 25 µM of (−)-Abz-E3M

endogenous ABA level = experiment: Endogenous ABA levels in maize; format: in vivo, Maize (cv. Gold rush); details: maize 2-week-old seedlings, roots dipped in 100 μM overnight, aerial shoot tissues

abscinazole-E3M [(−)-6]
Effect on Arabidopsis seed germination under high temperature conditions ([1]; 30 °C, thermoinhibition, Fig. S3): inhibited Arabidopsis seed germination
Potency in enhancing ABA's effects on seed germination relative to (−)-Abz-E2B ([1]; co-treatment with ABA (0.1 μM)): 10 fold
Effect on ABA's inhibition of Arabidopsis seed germination ([1]; in the presence of 0.1 μM ABA, Fig. 3): enhanced the effects of ABA
Leaf surface temperature (maize stomatal movement): increased the leaf surface temperature
Stomatal conductance (maize stomatal movement): suppressed
Transpiration rate (maize stomatal movement): suppressed
ABA-inducible GUS staining (MAPKKK18::GUS) [2]: enhanced the ABA-inducible GUS staining
Endogenous ABA levels (endogenous ABA level): increased the endogenous ABA levels
